According to patent US20260235789A1, “THERAPEUTIC LENSES FOR USE AS OCULAR BANDAGE AND SIMULTANEOUSLY FOR THE ADMINISTRATION OF EYE DROPS” (EYE PHARMA SPA, priority 2021, published 2026):

Tested on: Salmonella typhimurium
Test: Bacterial proliferation assay (inhibition halo on agar plates)
Assay type: cell-based
Conditions: before vs after passage through the ionic therapeutic contact lenses; 2×10^9/mL bacteria on agar-coated plates; 24 hours; FIG. 4
Protocol: The influence of lens interaction on the antibacterial effect of chloramphenicol was tested with a bacterial challenge using Salmonella typhimurium seeding 2×10^9/mL bacteria on agar-coated plates. An antibiotic disk was inserted in the middle of the plate to verify the inhibition halo around the dish after 24 hours. Both the chloramphenicol eye drops and the liquid suspending the therapeutic lenses for storage were tested. The antibacterial capacity of chloramphenicol was comparatively tested before and after the passage through the ionic therapeutic contact lenses according to the invention. The diameter of the clear halo around the chloramphenicol depot area (central white spot) was not different.

O=C(N[C@H](CO)[C@H](O)c1ccc([N+](=O)[O-])cc1)C(Cl)Cl [chloramphenicol]
diameter of the clear halo around the chloramphenicol depot area: not different
